Test results reported in article PMC10578927, “An unconventional gatekeeper mutation sensitizes inositol hexakisphosphate kinases to an allosteric inhibitor” (eLife, 2023).

Biological target: T1, IP6KA^M85V (Entamoeba histolytica, UniProt N9UNA8, M85V)
T1 sequence (N9UNA8 1-270 M85V): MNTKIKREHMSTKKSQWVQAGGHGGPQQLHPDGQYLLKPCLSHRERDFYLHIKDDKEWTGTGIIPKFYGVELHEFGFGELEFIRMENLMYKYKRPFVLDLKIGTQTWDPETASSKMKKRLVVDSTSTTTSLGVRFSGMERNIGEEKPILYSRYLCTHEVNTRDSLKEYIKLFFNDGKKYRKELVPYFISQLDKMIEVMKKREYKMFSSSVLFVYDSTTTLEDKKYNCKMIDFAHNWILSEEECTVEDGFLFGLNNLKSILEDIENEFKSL
Assay: NMR activity assay for EhIP6KA constructs
Type: biochemical

O=C(O)c1ccc2c(c1)C(=O)N(c1ccc(-c3nc4ccc(N5C(=O)c6ccc(C(=O)O)cc6C5=O)cc4[nH]3)cc1)C2=O [FMP-201300]
IC50: 780 nM
